From article PMC9144915, “Indole Alkaloids and Chromones from the Stem Bark of Cassia alata and Their Antiviral Activities” (Molecules, 2022) come the findings set out here.

≈ marks a conversion by molar mass, not a printed value. Like-named read-outs stand apart in the source and are kept apart here.

Usually IC50 stands for the concentration needed to halve the response being measured. Usually inhibition stands for the relative decrease from the control value, in per cent. For orientation: CC50 means the concentration that lowers cell viability or growth by half. Usually EC50 stands for the concentration giving half of the maximal effect.

For series [1], the system named is tobacco mosaic virus (TMV). In words: Anti-TMV activity, half-leaf method. The class given is in vivo. The conditions noted are these: in Nicotiana glutinosa; for inhibition at 20 µM: read-out: % Inhibition at 20 µM. As for the experimental part: The anti-TMV activities were tested using the half-leaf method according to our previous studies, and Ningnanmycin (C16H23O8N7, CAS No. 156410-09-2), a commercial cytosine nucleoside peptide type antibiotics for plant disease in China, was used as a positive control. The virus was inhibited by mixing with the solution of tested compounds (20 μM in DMSO). After 30 min, the mixture was inoculated on the left side of the leaves of N. glutinosa, whereas the right side of the leaves was inoculated with the mixture of DMSO solution with the virus as control. The local lesion numbers were recorded 3–4 days after inoculation. Three repetitions were conducted for each compound. The inhibition rates were calculated according to the formula: inhibition rate (%) = [(C − T)/C] × 100%(1) where C is the average number of local lesions of the control and T is the average number of local lesions of the treatment. Ningnanmycin (20 μM in DMSO), a commercial virucide for plant disease in China, was used as a positive control.

Series [2] can be described thus: Cytotoxicity in MA-104 cells (MTT). It is filed as cell-based. The note with it: African green monkey. As for the experimental part:
(§1) The anti rotavirus activities were tested according to our previous literature. Human rotavirus Wa group was used to infect the cell culture MA104 in vitro, the 50% cytotoxicity concentration (CC50) and half maximal effective concentration (EC50) were evaluated, and ribavirin (C8H12N4O5, CAS No. […], a broad-spectrum antiviral drug) was used as a positive control. MA-104 cells (1 × 10^5 cells per well) were grown in 96-well plates for 48 h. The media were removed and replaced by new media containing serial dilutions of compounds under test. After incubation for 72 h, the media were discarded, and 5.0 μL of MTT solution was added to each well. Plates were then incubated at 37 °C for 4 h. The solution was removed, and 100 μL of 0.04 mol/L HCl-isopropanol was added to each well to dissolve formazan crystals. Using a microplate reader, the absorbance of each well was measured at 540 nm. After subtracting the background absorbance at 655 nm, the 50% CC50 of each compound was estimated by regression analysis.

Series [3] concerns Human rotavirus Wa group. In words: Anti-rotavirus assay, prevention of cytopathic effect in MA104 cells (mixed treatment). It is filed as cell-based. The conditions noted are these: for EC50: Human rotavirus, MA104, rotavirus 0.01 MOI, MA-104 cells, 72 h, CPE; for TI (CC50/EC50): therapeutic index. As for the experimental part:
In order to study whether the chromones and indole alkaloids from the stem bark of C. alata had more broad antiviral activities, compounds 1–5 were also tested for their anti-rotavirus activity. Their ability to prevent the cytopathic effects of rotavirus in MA104 cells was tested according to our previous literatures, and their effects were measured in parallel with the determination of antiviral activity using ribavirin as a positive control.
as §1
In the mixed treatment assay, each compound was mixed with a 0.01 multiplicity of infection (MOI) of the rotaviruses at various concentrations (1–160 μg/mL) and incubated at 4 °C for 1 h. The mixtures were inoculated in triplicates onto near confluent MA-104 cell monolayers (1 × 10^5 cells per well) for 1 h with occasional rocking. The solution was removed, and the cells were replaced with eagles minimum essential medium (EMEM) containing 1 μg/mL trypsin. […] EC50 was estimated by regression analysis.

For series [4], the system named is TMV. Put plainly: Protective effect on TMV (pretreatment of tobacco plant before inoculation). It is filed as in vivo. The conditions noted are these: Tobacco mosaic virus; tobacco plant pretreated with 20 μM solution for 6 h before inoculation with TMV; read-out: protective effect inhibition rate. As for the experimental part: For compounds with significant activities in half-leaf method assays, their protective effects on TMV were also evaluated by pretreating a tobacco plant with 20 μM solutions of compounds in DMSO, or a solution of DMSO for 6 h before inoculation with TMV.

As to `COc1cc(C)cc2c1CN(C)C2=O` [Compound 1, 4-Methoxy-2,6-dimethylisoindolin-1-one], in series [1], the midpoint of inhibition, the IC50, lay at 55.3 µM and the inhibition at 20 µM came to 26.5 ± 2.8%. The compound also had a CC50 at 72 h in series [2] of 142 µg/mL (≈ 745 µM). Also, in series [3], a half-maximal response (EC50) required 14.6 µg/mL (≈ 76.3 µM) and the “TI (CC50/EC50)” value was 9.75.

Consider `COc1cc(CO)cc2c1CN(C)C2=O` [Compound 2, 6-(Hydroxymethyl)-4-methoxy-2-methylisoindolin-1-one], for which, in series [1], the IC50 was 22.6 µM and the inhibition at 20 µM turned out to be 44.4 ± 3.5%. The compound further came in with a CC50 at 72 h in series [2] of 175 µg/mL (≈ 845 µM). Besides, in series [3], the midpoint of the response, the EC50, lay at 14.8 µg/mL (≈ 71.4 µM) and the “TI (CC50/EC50)” value worked out at 11.8. For the same compound, the inhibition at 20 µM in series [4] was determined as 40.8%.

Take `COc1cc(CCCO)cc2c1CN(C)C2=O` [Compound 3, 6-(3-Hydroxypropyl)-4-methoxy-2-methylisoindolin-1-one]: in series [1], the IC50 is 14.2 µM and the inhibition at 20 µM worked out at 66.5 ± 4%. For the same compound, the CC50 at 72 h in series [2] amounted to 208 µg/mL (≈ 885 µM). Also, in series [3], the EC50 worked out at 13.6 µg/mL (≈ 57.8 µM) and the “TI (CC50/EC50)” value is 15.3. Also, the inhibition at 20 µM in series [4] was 68.2%.

Take `CC(=O)Cc1c(CO)ccc2c1OC(C)(C)CC2=O` [Compound 4, 7-(Hydroxymethyl)-2,2-dimethyl-8-(2-oxopropyl)chroman-4-one]: in series [1], the half-inhibitory concentration (IC50) was 17.9 µM and the inhibition at 20 µM was found to be 52.3 ± 3.6%. The same compound registered a cytotoxic concentration (CC50) at 72 h in series [2] of 192 µg/mL (≈ 734 µM). In series [3], the half-maximal effective concentration (EC50) came out at 15.5 µg/mL (≈ 59.1 µM) and the “TI (CC50/EC50)” value is on record as 12.4. In addition, the inhibition at 20 µM in series [4] was 49.3%.

Turning to `COc1cc(C)cc2c1CN(Cc1ccc3c(c1CC(C)=O)OC(C)(C)CC3=O)C2=O` [Compound 5, 2-((3,4-Dihydro-2,2-dimethyl-4-oxo-8-(2-oxopropyl)-2H-chromen-7-yl)methyl)-4-methoxy-6-methyl-isoindolin-1-one], in series [1], the IC50 stood at 43.4 µM and the inhibition at 20 µM is 31.8 ± 3.3%. Also, the CC50 at 72 h in series [2] worked out at 154 µg/mL (≈ 364 µM). Also, in series [3], the EC50 amounted to 12.8 µg/mL (≈ 30.4 µM) and the “TI (CC50/EC50)” value worked out at 12.0.

As for `CNCC(=O)N[C@@H](CO)C(=O)N[C@H]1[C@H](O)[C@@H](O)[C@H](n2ccc(N)nc2=O)O[C@@H]1C(N)=O` [Ningnanmycin, reference compound], in series [1], inhibition was half-maximal at 37.2 µM (IC50) and the inhibition at 20 µM worked out at 32.8 ± 3%.

On to `NC(=O)c1ncn([C@@H]2O[C@H](CO)[C@@H](O)[C@H]2O)n1` [Ribavirin, reference compound], for which, in series [2] (MA-104 cells, 72 h, MTT, read-out: CC50), the CC50 at 72 h was 234 µg/mL (≈ 960 µM). In addition, in series [3], the EC50 is 12.2 µg/mL (≈ 50 µM) and the “TI (CC50/EC50)” value is listed as 19.2.
